Data published in publication PMC12162873, “Modulating phosphatase DUSP22 with BML-260 ameliorates skeletal muscle wasting via Akt independent JNK-FOXO3a repression” (EMBO Molecular Medicine, 2025).
Several values for one entry are separate records, joined by “and”; a condition that tells them apart may be missing. Equal entries are not always repeated.

Test system: 24-26-month-old male C57BL/6 mice
Assay: Skeletal muscle aging model, BML-260 treatment
Format: in vivo, mouse
Set-up: Area / Feret / Feret, Average / Area, Average: unit not given here
Details: for Area / Feret: listed as BML
Protocol: To assess DUSP22 pharmacological targeting, BML-260 was treated to 24–26-month-old male C57BL/6 mice as follows: (1) vehicle alone (5% DMSO + 5% tween 80) and (2) 5 mg/kg BML-260 (n = 5 per group). Mice were treated via IP delivery every 24 h for 4 weeks and then assessed for skeletal muscle function and condition.
Grip strength was measured using the BIO-GS3 device (Bioseb, FL, USA). Mice were placed onto the grid with all four paws attached and gently pulled backwards to measure the grip strength until the grid was released. The maximum grip value, used to represent muscle force, was calculated using 3 trials with an interval of 30 s.
Muscle fatigue was measured the previously described protocol (Chiu et al, [2018]), with two different models using the Rotarod. One was the constant model and the other was the accelerating model that is inherent in the rotarod device. In brief, the mice were accommodated to training before the commencement of the fatigue task using an accelerating rotarod (Ugo Basile, Italy). The mice were trained at a constant speed of 13 rpm for 15 min. After a recovery period of 15 min, the mice were placed on the rotarod adjusted to accelerate from 13 to 25 rpm in 3 min for 15 min. 24 h later, the muscle fatigue test was carried out with speeds ramping from 13 to 25 rpm in 3 min, and maintained at 25 rpm for a 30 min interval. Latency to fall off the rotarod was measured for each mouse. A fatigued mouse was classified as falling off 4 times within a 1 min period, which also terminated the test.
Mice were anesthetized using ketamine (22 mg/kg; Yuhan, Republic of Korea) and xylazine (10 mg/kg; Bayer, Republic of Korea) in saline by IP injection. The quadriceps, gastrocnemius, soleus and TA muscles were then dissected and weighed. For histological analysis, the muscles were fixed by overnight incubation with 4% paraformaldehyde in PBS pH 7.4 at 4 °C. Paraffin sectioning and H&E staining were provided by the Animal Housing Facility, Gwangju Institute of Science and Technology, Republic of Korea (5 µm muscle sections using a Thermo Scientific HistoStar (Thermofisher). H&E staining was carried out with a kit (Merck, Germany)). For immunohistochemistry, TA muscle sections were permeabilized for 15 min (PBS with 0.5% Triton X-100), blocked for 1 h (5% BSA) and incubated with the primary antibody overnight at 4 °C (a list of primary and secondary antibodies used in this study are provided in Appendix Tables S4 and S5, respectively). After washing with PBS 3 times for 5 min, the sections were incubated with the secondary antibody at RT for 1 h. The nuclei were counterstained with DAPI in ProLong™ Gold Antifade Mountant (Invitrogen, P36935). Digital images were acquired with Leica DM 2500 (Leica Microsystems). Cross sectional area (CSA) and fiber size distribution was measured using the NIH imaging software Image J 64. To CSA and size distribution of different fiber types was calculated in 4 muscle section as follows: type 2 A: 30–40 fibers measured; type 2B: at least 100 fibers measured; type 2X: 30–40 fibers measured.

[1] = 5 mg/kg IP every 24 h for 4 weeks
[2] = S10.B, group average of 3 animals
[3] = S10.B, individual measurements, animal BML 1
[4] = S10.B, mean per animal (BML 1, BML4, BML5)

Compound: O=C(O)c1ccc(N2C(=O)C(=Cc3ccccc3)SC2=S)cc1 (stereo in doubt) [BML-260]
- CSA and Feret's diameter of type 2A, 2B and 2X myofibers, TA and gastrocnemius [1]: increased
- DUSP22 levels in the TA muscle, western blot [1]: reduced DUSP22 levels
- body weight [1]: not significantly affected
- expression of PGC-1α, qPCR [1]: increased
- expression of atrogin-1 and MuRF-1 in the TA muscle, qPCR [1]: reduced
- expression of myostatin, qPCR [1]: reduced
- grip strength mean value [1]: increased by BML-260 treatment but did not reach statistical significance
- latency to fall in the rotarod test [1]: statistically increased
- mass of quadriceps, gastrocnemius, TA and soleus muscles [1]: increased the mean mass value of the quadriceps, gastrocnemius, TA and soleus muscles, and reached statistical significance for the TA and gastrocnemius muscles
- proportion of slow type 1 myofibers [1]: did not significantly affect
- Area, Average [2]: 2003.72
- Feret, Average [2]: 60.0894
- Area [3]: 2289.78 and 2476.44 and 2826.67 and 1960.89 and 2172.44 and 1594.67 and 2152.89 and 2090.67 and 1617.78 and 2085.33 and 2567.11
- Feret [3]: 75.248 and 68.56 and 66.573 and 63.175 and 60.296 and 56.506 and 57.366 and 56.056 and 52.173 and 66.306 and 72.271
- Area [4]: 2166.79 and 2165.89 and 1678.47
- Feret [4]: 63.1391 and 63.015 and 54.114
- DUSP22 expression, western blot quantification, Average (TA of aged mice (Fig EV4A), Young average = 1): 0.2806
- DUSP22 expression, western blot quantification (TA of aged mice (Fig EV4A), Young average = 1, individual animals): 0.2303 and 0.3985 and 0.213
- increase of grip strength (aged skeletal muscle): > 20%
